Among the data in PMC12040169 (PLOS Biology, 2025) are viability values, retold here.

A short description of this series: in vitro. The note with it: human, hela cells, % viability.
`OC(Cn1nnc2ccccc21)Cn1c(-c2ccccc2)c(-c2ccccc2)c2ccc3ccccc3c21` (stereo not drawn) [CBK264054G]: the viability at 28.5 h, 10 µM worked out at 92.9%.

For the compound `COc1cc2c(cc1NC(=O)C(C)Oc1ccccc1)oc1ccccc12` (stereo not drawn) [CBK264061], the viability at 28.5 h, 10 µM was found to be 91.3%.

In the case of `CC(Oc1ccccc1)C(=O)Nc1cccc(C#N)c1` (stereo not drawn) [CBK264062], the viability at 28.5 h, 10 µM worked out at 91%.

`O=C(CSc1nc2sc3c(c2c(=O)[nH]1)CCCC3)NCCN1CCOCC1` [CBK264064]: the viability at 28.5 h, 10 µM was 111%. On to `Cc1ccc(C(=O)C(C)OC(=O)c2cc(-c3ccccc3)nc3ccccc23)cc1` (stereo not drawn) [CBK264067], for which the viability at 28.5 h, 10 µM worked out at 99.8%.

As to `COc1ccc(S(=O)(=O)Nc2cccc(C(=O)O)c2)cc1C(=O)O` [CBK264069], the viability at 28.5 h, 10 µM turned out to be 86.8%.

Take `COc1ccc(S(=O)(=O)NCc2ccc3c(c2)OCO3)cc1C(=O)O` [CBK264070]: the viability at 28.5 h, 10 µM worked out at 97.6%.

For `O=C(O)CCc1nc2ccccc2s1` [CBK264071], the viability at 28.5 h, 10 µM is 115%. Turning to `COc1cc(NC(=O)c2ccc3c(c2)C(=O)N(c2c(C)cc(C)cc2C)C3=O)c(C(=O)O)cc1OC` [CBK264074], the viability at 28.5 h, 10 µM was 91.1%. Next, `COc1ccc(NC2c3cccc4cccc(c34)C2NS(=O)(=O)c2ccccc2)cc1` (stereo not drawn) [CBK264075]: 97.4%.

With `COc1cc(/C=C/C(=O)O)cc(S(=O)(=O)N2CCOCC2)c1OC` [CBK264078], the viability at 28.5 h, 10 µM came out at 117%. On to `CC1=C(C(=O)OCC(=O)c2ccc(C)cc2)C2C=C(Br)C=CC2N=C1c1ccc(C)cc1` (stereo not drawn) [CBK264079], for which the viability at 28.5 h, 10 µM worked out at 94%. On to `O=C(O)CNC(=O)CN1C(=O)c2ccc(C(=O)O)cc2C1=O` [CBK264080], for which the viability at 28.5 h, 10 µM came out at 90.8%. As to `Cc1ccc(C(=O)COC(=O)c2cccc(C)c2O)cc1[N+](=O)[O-]` [CBK264081], the viability at 28.5 h, 10 µM was determined as 90.5%. Under `COc1ccc(C(=O)C(OC(=O)c2cc(O)nc3ccccc23)c2ccccc2)cc1` (stereo not drawn) [CBK264083] stands 97.1%. Next, `COc1ccc(S(=O)(=O)Nc2ccccc2C(=O)O)cc1C(=O)O` [CBK264084]: 99.9%; `Cc1cccc2c(C(=O)OCC(=O)c3ccc([N+](=O)[O-])cc3)cc(-c3ccc(Cl)cc3)nc12` [CBK264088]: 94.5%; `COc1cccc(NC(=O)CN2CCN(c3nc4ccc([N+](=O)[O-])cc4s3)CC2)c1` [CBK264089]: 93.7%. Take `N#Cc1cc(Nc2ccc(Cc3ccncc3)cc2)c([N+](=O)[O-])cc1C#N` [CBK264090]: the viability at 28.5 h, 10 µM amounted to 93.9%. Next, `Cc1noc(NS(=O)(=O)c2ccc(NC(=O)CCN3C(=O)c4ccccc4C3=O)cc2)c1C` [CBK264091]: 96.1%; `CS(=O)(=O)N(Cc1ccc(Cl)cc1)c1ccc(C(=O)Nc2ccccc2C(=O)O)cc1` [CBK264093]: 105%; `Cc1ccc(S(=O)(=O)N(CC(=O)Nc2cccnc2)c2cccc(Br)c2)cc1` [CBK264094]: 62.8%.

Consider `O=C(Nc1cccnc1)c1ccc(CN2CCC(Cc3ccccc3)CC2)cc1` [CBK264095], for which the viability at 28.5 h, 10 µM was 94.9%. With `Cc1ccc(C(=O)COC(=O)CCN2C(=O)C3C4CCC(C4)C3C2=O)cc1[N+](=O)[O-]` (stereo not drawn) [CBK264096], the viability at 28.5 h, 10 µM was determined as 91.5%. As for `O=C(Nc1cc(-c2nc3ncccc3o2)ccc1Cl)c1ccc(-c2ccccc2[N+](=O)[O-])o1` [CBK264097], the viability at 28.5 h, 10 µM stood at 89%. Consider `COc1ccc(NC(=O)C(OC)c2ccccc2)cc1Cl` (stereo not drawn) [CBK264098], for which the viability at 28.5 h, 10 µM was determined as 95.2%. Under `O=C(Cn1c(NCCCO)nc2ccccc21)c1ccco1` [CBK264099B] stands 94.7%; under `CC(=O)Nc1ccc(S(=O)(=O)/N=C(/Nc2nc(C)cc(C)n2)Nc2ccccc2C)cc1` [CBK264101], 95.9%; under `COc1ccccc1NC(=O)c1c(NC(=O)Cc2ccccc2)sc2c1CCC(C(C)(C)C)C2` (stereo not drawn) [CBK264102], 94.1%. Next, `Cc1ccc(C(=O)NCCNC(=O)CN2CCCC2)cc1` [CBK264103]: 92.5%; `O=C(Nc1cc(-c2nc3ncccc3o2)ccc1Cl)c1ccc2c(c1)OCCO2` [CBK264105]: 95%. Next, `Cc1ccccc1N1C(=O)c2ccc(C(=O)OCC(=O)c3ccc(Cl)c([N+](=O)[O-])c3)cc2C1=O` [CBK264108]: 91.3%. `Cc1cccc(OCC(=O)Nc2ccc(S(=O)(=O)N3CCOCC3)cc2)c1` [CBK264110]: the viability at 28.5 h, 10 µM came out at 94.6%.

Turning to `COc1ccc(Br)cc1C(=O)Nc1cc(-c2nc3ccccc3[nH]2)ccc1Cl` [CBK264112], the viability at 28.5 h, 10 µM was determined as 93.6%.

Consider `Cc1ccc(NC(=O)CSc2nnc(COc3ccc(Cl)cc3Cl)o2)cc1Cl` [CBK264113], for which the viability at 28.5 h, 10 µM is 90.9%. Regarding `O=C(CSCc1cccc(Cl)c1)Nc1cccnc1` [CBK264114], the viability at 28.5 h, 10 µM came out at 95.9%. As for `Cc1ccc(S(=O)(=O)N(CC(=O)Nc2cccnc2)c2cc(C)ccc2C)cc1` [CBK264115], the viability at 28.5 h, 10 µM amounted to 61.7%.

For the compound `Cc1ccc(S(=O)(=O)NCCSCc2cccc(Cl)c2)cc1[N+](=O)[O-]` [CBK264116], the viability at 28.5 h, 10 µM came out at 93.4%. Under `CS(=O)(=O)N(Cc1ccccc1)c1ccc(C(=O)Nc2ccccc2C(=O)O)cc1` [CBK264117] stands 108%; under `c1csc(-c2nc3[nH]c4ccccc4n3n2)c1` [CBK264118], 102%; under `O=C(CCSc1ccccc1)Nc1ccccc1C(=O)O` [CBK264119], 92.1%. Next, `CN1CCN(C(=O)CN(c2cccc([N+](=O)[O-])c2)S(=O)(=O)c2ccccc2)CC1` [CBK264121]: 87.6%. Under `COc1ccccc1NC(=O)c1c(NC(=O)c2cccs2)sc2c1CCC(C(C)(C)C)C2` (stereo not drawn) [CBK264123] stands 100%; under `O=C(CCN1C(=O)C2C3CCC(C3)C2C1=O)OCC(=O)c1ccc(Cl)c([N+](=O)[O-])c1` (stereo not drawn) [CBK264124], 95.2%; under `O=C(Cn1c(NCCO)nc2ccccc21)c1ccco1` [CBK264127B], 96.3%.

Regarding `COc1ccc(OC)c(N(CC(=O)N2CCN(C)CC2)S(=O)(=O)c2ccccc2)c1` [CBK264131], the viability at 28.5 h, 10 µM turned out to be 98.8%. Take `CS(=O)(=O)N(Cc1ccccc1)c1ccc(C(=O)N2CCN(Cc3ccccc3)CC2)cc1` [CBK264134]: the viability at 28.5 h, 10 µM was 114%.

For the compound `O=C(O)c1ccccc1OCCCCOc1cccc2cccnc12` [CBK264136], the viability at 28.5 h, 10 µM came out at 87.2%. Next, `CC(CC(=O)O)n1nnc2ccccc21` (stereo not drawn) [CBK264139]: 113%. Under `CC(C)(C)C1CCc2c(sc(NC(=O)CCC(=O)O)c2C(=O)Nc2ccccc2C(F)(F)F)C1` (stereo not drawn) [CBK264143] stands 100%. Under `Cc1cc2c(cc1C)N(C(=O)CSc1nc3ccccc3[nH]1)C(C)(C)CC2C` (stereo not drawn) [CBK264144] stands 98.7%.

Regarding `Nc1ncnc2[nH]c(SCc3nc4ccccc4n3Cc3ccccc3)nc12` [CBK264148], the viability at 28.5 h, 10 µM is 103%.

Consider `NC(=O)CN(Cc1ccc(Cl)cc1)S(=O)(=O)c1ccccc1` [CBK264149], for which the viability at 28.5 h, 10 µM came out at 99.5%. On to `N=C1/C(=C/c2cn(Cc3ccccc3)c3ccccc23)C(=O)N=C2SC(COc3ccccc3)=NN12` [CBK264150], for which the viability at 28.5 h, 10 µM came out at 114%.

A word on the viability: it is a read-out of living cells in per cent, often relative to untreated cells.
